PubChem BioAssay AID330 (DTP/NCI, 2004)
“And” between values parts separate entries of the source, which are not always exact repeats. Equal values may be shown once. Toxic doses and inconclusive results are not listed.

System: P388 leukemia ip, CD2F1 mice, survival T/C
Assay: NCI In Vivo Anticancer Drug Screen. Data for tumor model P388 Leukemia (intraperitoneal) in CD2F1 (CDF1) mice
Settings: endpoint: median survival time, higher = longer survival
Procedure, shortened: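 Mice carrying the transplanted tumor received test compound or vehicle. Survival was recorded in each group, and the value is the treated-group measurement divided by that of the vehicle-treated control group.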

[1] = dose: 50.0 mg/kg/injection, schedule: Q01DX005 (ip), vehicle: saline with Tween-80
[2] = dose: 100.0 mg/kg/injection, schedule: Q01DX005 (ip), vehicle: saline with Tween-80
[3] = dose: 200.0 mg/kg/injection, schedule: Q01DX005 (ip), vehicle: saline with Tween-80
[4] = dose: 50.0 mg/kg/injection, schedule: Q01DX005 (ip), vehicle: saline
[5] = dose: 100.0 mg/kg/injection, schedule: Q01DX005 (ip), vehicle: saline
[6] = dose: 50.0 mg/kg/injection, schedule: Q01DX005 (ip), vehicle: Klucel (hydroxypropylcellulose) (HPC)
[7] = dose: 100.0 mg/kg/injection, schedule: Q01DX005 (ip), vehicle: Klucel (hydroxypropylcellulose) (HPC)
[8] = dose: 200.0 mg/kg/injection, schedule: Q01DX005 (ip), vehicle: Klucel (hydroxypropylcellulose) (HPC)
[9] = dose: 100.0 mg/kg/injection, schedule: Q01DX009 (ip), vehicle: saline with Tween-80
[10] = dose: 200.0 mg/kg/injection, schedule: Q01DX009 (ip), vehicle: saline with Tween-80
[11] = dose: 25.0 mg/kg/injection, schedule: Q01DX009 (ip), vehicle: saline
[12] = dose: 50.0 mg/kg/injection, schedule: Q01DX009 (ip), vehicle: saline
[13] = dose: 100.0 mg/kg/injection, schedule: Q01DX009 (ip), vehicle: saline
[14] = dose: 200.0 mg/kg/injection, schedule: Q01DX009 (ip), vehicle: saline
[15] = dose: 12.5 mg/kg/injection, schedule: Q01DX005 (ip), vehicle: Klucel (hydroxypropylcellulose) (HPC)
[16] = dose: 25.0 mg/kg/injection, schedule: Q01DX005 (ip), vehicle: Klucel (hydroxypropylcellulose) (HPC)
[17] = dose: 6.25 mg/kg/injection, schedule: Q01DX009 (ip), vehicle: Klucel (hydroxypropylcellulose) (HPC)
[18] = dose: 12.5 mg/kg/injection, schedule: Q01DX009 (ip), vehicle: Klucel (hydroxypropylcellulose) (HPC)
[19] = dose: 25.0 mg/kg/injection, schedule: Q01DX009 (ip), vehicle: Klucel (hydroxypropylcellulose) (HPC)
[20] = dose: 50.0 mg/kg/injection, schedule: Q01DX009 (ip), vehicle: Klucel (hydroxypropylcellulose) (HPC)
[21] = dose: 200.0 mg/kg/injection, schedule: Q01DX009 (ip), vehicle: Klucel (hydroxypropylcellulose) (HPC)
[22] = dose: 100.0 mg/kg/injection, schedule: Q01DX009 (ip), vehicle: Klucel (hydroxypropylcellulose) (HPC)
[23] = dose: 60.0 mg/kg/injection, schedule: Q01DX005 (ip), vehicle: saline with Tween-80
[24] = dose: 120.0 mg/kg/injection, schedule: Q01DX005 (ip), vehicle: saline with Tween-80
[25] = dose: 240.0 mg/kg/injection, schedule: Q01DX005 (ip), vehicle: saline with Tween-80
[26] = dose: 200.0 mg/kg/injection, schedule: Q01DX005 (ip), vehicle: saline

With `CC(=O)OC1OC(=O)C(C)(C(C)=O)C1C` (stereo not given) the T/C (dose: 12.5 mg/kg/injection, schedule: Q01DX005 (ip), vehicle: distilled water + alcohol) was 100 % of control and the T/C (dose: 25.0 mg/kg/injection, schedule: Q01DX005 (ip), vehicle: distilled water + alcohol) was 100 % of control.
With `Cc1cc2c3c(cccc3c1)C(=O)c1ccccc1-2` the T/C [1] was 102 % of control, the T/C [2] was 102 % of control and the T/C [3] was 93 % of control.
`CCN(CC)CCOC1CCCCC1` was tested, and the T/C [4] was 105 % of control and the T/C [5] was 98 % of control.
In the case of `COC(=O)CCSC(=O)NC(C)C`, the T/C [6] is reported as 99 % of control, the T/C [7] is reported as 102 % of control and the T/C [8] is reported as 100 % of control.
`CSC(C)(C(=N)C#N)N(C)C` (stereo not given) was tested, and the T/C (dose: 12.5 mg/kg/injection, schedule: Q04DX003 (ip), vehicle: saline) was 103 % of control, the T/C (dose: 25.0 mg/kg/injection, schedule: Q04DX003 (ip), vehicle: saline) was 100 % of control and the T/C (dose: 50.0 mg/kg/injection, schedule: Q04DX003 (ip), vehicle: saline) was 104 % of control.
`CC1=CC(O)(C2(C)OC(C)(C)OC2=O)CCC1` (stereo not given) was tested, and the T/C (dose: 100.0 mg/kg/injection, schedule: Q01DX001 (ip), vehicle: saline) was 100 % of control, the T/C (dose: 200.0 mg/kg/injection, schedule: Q01DX001 (ip), vehicle: saline) was 100 % of control and the T/C (dose: 400.0 mg/kg/injection, schedule: Q01DX001 (ip), vehicle: saline) was 100 % of control.
With `COc1cc2c(cc1OC)NC(=O)C2` the T/C (dose: 50.0 mg/kg/injection, schedule: Q04DX003 (ip), vehicle: saline with Tween-80) was 97 % of control and the T/C (dose: 100.0 mg/kg/injection, schedule: Q04DX003 (ip), vehicle: saline with Tween-80) was 98 % of control.
`COc1ccc(Cl)cc1C(c1cc(Cl)ccc1OC)C(Cl)(Cl)Cl` was tested, and the T/C [9] was 100 % of control, the T/C [10] was 100 % of control and the T/C (dose: 400.0 mg/kg/injection, schedule: Q01DX009 (ip), vehicle: saline with Tween-80) was 90 % of control.
In the case of `O=C1NC(CN2CCC(O)CC2)C(=O)NC1CN1CCC(O)CC1` (stereo not given), the T/C [11] is reported as 100 % of control, the T/C [12] is reported as 100 % of control and the T/C [13] is reported as 98 % of control. For the same molecule, the T/C [14] was 97 % of control.
`C1CC[N-]CC1.C1CC[N-]CC1.N#C[S-].N#C[S-].[Cu]` was tested, and the T/C (dose: 1.25 mg/kg/injection, schedule: Q04DX003 (ip), vehicle: saline with Tween-80) was 100 % of control, the T/C (dose: 2.5 mg/kg/injection, schedule: Q04DX003 (ip), vehicle: saline with Tween-80) was 100 % of control and the T/C (dose: 5.0 mg/kg/injection, schedule: Q04DX003 (ip), vehicle: saline with Tween-80) was 90 % of control. The T/C (dose: 10.0 mg/kg/injection, schedule: Q04DX003 (ip), vehicle: saline with Tween-80) was 90 % of control.
With `Cn1cc(C#N)c(=O)[nH]c1=O` the T/C [6] was 101 % of control, the T/C [7] was 98 % of control and the T/C [8] was 104 % of control.
For `C=C(C)c1ccc([Si](C)(C)C)cc1`, the T/C [12] was 104 % of control, the T/C [13] was 101 % of control and the T/C [14] was 109 % of control.
For `CS(=O)(=O)C(=C1C(=O)NC(=O)NC1=O)S(C)(=O)=O`, the T/C [15] was 98 % of control, the T/C [16] was 100 % of control and the T/C [6] was 107 % of control and 109 % of control.
`C=C1C(=O)OC2CC(C)C3OC3C(=O)C(C)(O)C(O)C(O)C12` (stereo not given) (tested in a mixture with another compound) was tested, and the T/C [17] was 104 % of control, the T/C [18] was 101 % of control and 117 % of control and the T/C [19] was 110 % of control and 123 % of control. For the same molecule, the T/C [20] was 123 % of control and the T/C [21] was 119 % of control.
For `O=C1C(Cl)=CC(=NS(=O)(=O)c2ccccc2)C=C1Cl`, the T/C (dose: 3.13 mg/kg/injection, schedule: Q01DX009 (ip), vehicle: saline with Tween-80) was 100 % of control, the T/C (dose: 6.25 mg/kg/injection, schedule: Q01DX009 (ip), vehicle: saline with Tween-80) was 105 % of control and the T/C (dose: 6.25 mg/kg/injection, schedule: Q04DX003 (ip), vehicle: saline with Tween-80) was 95 % of control. The T/C (dose: 12.5 mg/kg/injection, schedule: Q01DX009 (ip), vehicle: saline with Tween-80) was 120 % of control.
For `O=C(Nc1cccc(C(F)(F)F)c1)OC1CC2CC1C1CC3OC3C21` (stereo not given), the T/C [6] was 93 % of control and the T/C [7] was 87 % of control.
With `COc1cc2c3c(c1OC)C(=O)C[C@@H]1CCCN(CC2)[C@H]31` the T/C [15] was 99 % of control and the T/C [16] was 98 % of control.
With `CC(=O)Nc1ccc(S(N)(=O)=O)cc1` the T/C [11] was 96 % of control, the T/C [12] was 95 % of control and the T/C [13] was 96 % of control. The T/C [14] was 102 % of control.
For `CC1NNC(=O)C1(Br)Br` (stereo not given), the T/C (dose: 6.25 mg/kg/injection, schedule: Q01DX009 (ip), vehicle: gum acacia) was 100 % of control and the T/C (dose: 12.5 mg/kg/injection, schedule: Q01DX009 (ip), vehicle: gum acacia) was 91 % of control.
For `CCc1cccc(CC)c1NC(=S)Nc1c(C)n(C)n(-c2ccccc2)c1=O`, the T/C [20] was 106 % of control, the T/C [22] was 103 % of control and the T/C [21] was 95 % of control.
For `O=C(/C=C/c1ccc(OCc2ccccc2)cc1)c1ccc([N+](=O)[O-])cc1`, the T/C (dose: 50.0 mg/kg/injection, schedule: Q01DX009 (ip), vehicle: saline with Tween-80) was 99 % of control, the T/C [9] was 104 % of control and the T/C [10] was 102 % of control.
`CCN(CC)CCS(=O)Cc1ccccc1` (stereo not given) was tested, and the T/C [23] was 100 % of control, the T/C [24] was 93 % of control and the T/C [25] was 102 % of control.
In the case of `NC(=O)NNC(=O)NNC(N)=O`, the T/C (dose: 100.0 mg/kg/injection, schedule: Q04DX003 (ip), vehicle: saline) is reported as 98 % of control, the T/C (dose: 200.0 mg/kg/injection, schedule: Q04DX003 (ip), vehicle: saline) is reported as 96 % of control and the T/C (dose: 400.0 mg/kg/injection, schedule: Q04DX003 (ip), vehicle: saline) is reported as 106 % of control.
`O=[N+]([O-])c1cnc(Oc2ccccc2[N+](=O)[O-])nc1` was tested, and the T/C [17] was 107 % of control, the T/C [18] was 98 % of control and the T/C [19] was 98 % of control. For the same molecule, the T/C [22] was 86 % of control.
In the case of `NC(=O)/C(N=Nc1cc(S(=O)(=O)O)ccc1Cl)=N\Nc1cc(S(=O)(=O)O)ccc1Cl`, the T/C [6] is reported as 100 % of control, the T/C [7] is reported as 91 % of control and the T/C [8] is reported as 94 % of control.
For `CCOC(=O)C(CCC[n+]1cc2ccccc2c2ccccc21)C(=O)OCC`, the T/C [4] was 106 % of control, the T/C [5] was 101 % of control and the T/C [26] was 101 % of control.
For `[Zn].c1c[nH]cn1.c1c[nH]cn1.c1c[nH]cn1.c1c[nH]cn1`, the T/C (dose: 25.0 mg/kg/injection, schedule: Q01DX005 (ip), vehicle: saline with Tween-80) was 107 % of control and 109 % of control and the T/C [1] was 106 % of control and 110 % of control and 115 % of control.
`COc1cc(NC(C)CN(CC(C)C)CC(C)C)c2ncccc2c1Cl` (stereo not given) was tested, and the T/C [4] was 100 % of control, the T/C [5] was 103 % of control and the T/C [26] was 116 % of control.
With `CC(=O)CC(C)c1ccc(C(C)CC(C)=O)o1` (stereo not given) the T/C [23] was 104 % of control, the T/C [24] was 106 % of control and the T/C [25] was 104 % of control.
With `CSC(=S)C(CNc1ncccn1)c1ccccc1` (stereo not given) the T/C (dose: 60.0 mg/kg/injection, schedule: Q01DX005 (ip), vehicle: Klucel + Tween-80) was 89 % of control and the T/C (dose: 120.0 mg/kg/injection, schedule: Q01DX005 (ip), vehicle: Klucel + Tween-80) was 89 % of control.
`O=C(O)C(O)C(O)C(=O)O.[Co+3].[NH-]CC[NH-].[NH-]CC[NH-].[NH-]CC[NH-]` (stereo not given) was tested, and the T/C [1] was 104 % of control and the T/C [2] was 100 % of control.
With `COc1ccc2c3c1OC1C(OC)(OC)C=C[C@@]4(Br)[C@@H](C2)N(C)CC[C@]314` (stereo not given in full) the T/C (dose: 100.0 mg/kg/injection, schedule: Q01DX001 (ip), vehicle: saline with Tween-80) was 109 % of control, the T/C (dose: 200.0 mg/kg/injection, schedule: Q01DX001 (ip), vehicle: saline with Tween-80) was 106 % of control and the T/C (dose: 400.0 mg/kg/injection, schedule: Q01DX001 (ip), vehicle: saline with Tween-80) was 123 % of control.
For `Cc1ccc(SCC(=O)NCc2cccs2)cc1`, the T/C [1] was 103 % of control, the T/C [2] was 97 % of control and the T/C [3] was 93 % of control.
`CC(O)CC(c1ccccc1)C(C(=O)O)c1ccccc1` (stereo not given) was tested, and the T/C [12] was 108 % of control, the T/C [13] was 101 % of control and the T/C [14] was 95 % of control.
